Tests used:
Format in all cases: in vivo
[1] = tested on: Ipomoea hederacea (IPOHE); test: Post-emergence herbicidal glasshouse test on Ipomoea hederacea; conditions: post-emergence, 1000 g/h, evaluated after 13 days
Procedure, shortened: (§1)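 Application rate 1000 g/h, formulated in acetone/water (50:50) with 0.5% Tween 20 and sprayed onto pots sown 1 day (pre-emergence) or 8 days (post-emergence) earlier. Evaluation at 13 days rated damage from 1 (0-19%) to 5 (80-100%).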

[2] = tested on: Echinochloa crus-galli (ECHCG); test: Pre-emergence herbicidal glasshouse test on Echinochloa crus-galli; conditions: pre-emergence, 1000 g/h, evaluated after 13 days
Procedure, shortened: as §1

Setaria faberi (SETFA) [3] = test: Pre-emergence herbicidal glasshouse test on Setaria faberi; conditions: pre-emergence, 1000 g/h, evaluated after 13 days
Procedure, shortened: as §1

[4] = tested on: Alopecurus myosuroides (ALOMY); test: Pre-emergence herbicidal glasshouse test on Alopecurus myosuroides; conditions: pre-emergence, 1000 g/h, evaluated after 13 days
Procedure, shortened: as §1

[5] = tested on: Amaranthus retoflexus (AMARE); test: Pre-emergence herbicidal glasshouse test on Amaranthus retoflexus; conditions: pre-emergence, 1000 g/h, evaluated after 13 days
Procedure, shortened: as §1

[6] = tested on: Ipomoea hederacea (IPOHE); test: Pre-emergence herbicidal glasshouse test on Ipomoea hederacea; conditions: pre-emergence, 1000 g/h, evaluated after 13 days
Procedure, shortened: as §1

Solanum nigrum (SOLNI) [7] = test: Post-emergence herbicidal glasshouse test on Solanum nigrum; conditions: post-emergence, 1000 g/h, evaluated after 13 days
Procedure, shortened: as §1

[8] = tested on: Alopecurus myosuroides (ALOMY); test: Post-emergence herbicidal glasshouse test on Alopecurus myosuroides; conditions: post-emergence, 1000 g/h, evaluated after 13 days
Procedure, shortened: as §1

[9] = tested on: Echinochloa crus-galli (ECHCG); test: Post-emergence herbicidal glasshouse test on Echinochloa crus-galli; conditions: post-emergence, 1000 g/h, evaluated after 13 days
Procedure, shortened: as §1

[10] = tested on: Amaranthus retoflexus (AMARE); test: Post-emergence herbicidal glasshouse test on Amaranthus retoflexus; conditions: post-emergence, 1000 g/h, evaluated after 13 days
Procedure, shortened: as §1

Setaria faberi (SETFA) [11] = test: Post-emergence herbicidal glasshouse test on Setaria faberi; conditions: post-emergence, 1000 g/h, evaluated after 13 days
Procedure, shortened: as §1

Solanum nigrum (SOLNI) [12] = test: Pre-emergence herbicidal glasshouse test on Solanum nigrum; conditions: pre-emergence, 1000 g/h, evaluated after 13 days
Procedure, shortened: as §1

Row | SMILES | POST Application IPOHE herbicidal damage (five point scale) [1] | PRE Application ECHCG herbicidal damage (five point scale) [2] | PRE Application SETFA herbicidal damage (five point scale) (Setaria faberi (SETFA) [3]) | PRE Application ALOMY herbicidal damage (five point scale) [4] | PRE Application AMARE herbicidal damage (five point scale) [5] | PRE Application IPOHE herbicidal damage (five point scale) [6] | POST Application SOLNI herbicidal damage (five point scale) (Solanum nigrum (SOLNI) [7]) | POST Application ALOMY herbicidal damage (five point scale) [8] | POST Application ECHCG herbicidal damage (five point scale) [9] | POST Application AMARE herbicidal damage (five point scale) [10] | POST Application SETFA herbicidal damage (five point scale) (Setaria faberi (SETFA) [11]) | PRE Application SOLNI herbicidal damage (five point scale) (Solanum nigrum (SOLNI) [12]) | also measured
1 | Cn1ncc(-c2ccc(C(F)(F)F)nc2N2CCOCC2)c(O)c1=O [Compound 1.075] | 5 (5=80-100% damage) | 5 (5=80-100% damage) | 1 (1=0-19% damage) | 1 (1=0-19% damage) | 5 (5=80-100% damage) | 2 (2=20-39% damage) | 5 (5=80-100% damage) | 3 (3=40-59% damage) | 5 (5=80-100% damage) | 5 (5=80-100% damage) | 2 (2=20-39% damage) | 5 (5=80-100% damage) | 
2 | Cn1ncc(-c2cc(Cl)ccc2Cl)c(O)c1=O [Compound 1.099] | 2 (2=20-39% damage) | 1 (1=0-19% damage) | 1 (1=0-19% damage) | 1 (1=0-19% damage) | 1 (1=0-19% damage) | 1 (1=0-19% damage) | 2 (2=20-39% damage) | 1 (1=0-19% damage) | 1 (1=0-19% damage) | 3 (3=40-59% damage) | 1 (1=0-19% damage) | 1 (1=0-19% damage) | 
3 | Cc1ccc(-c2c(C(F)(F)F)ccn(-c3cnn(C)c(=O)c3O)c2=O)cc1 [Compound 7.006] | 3 (3=40-59% damage) | 5 (5=80-100% damage) | 4 (4=60-79% damage) | 3 (3=40-59% damage) | 5 (5=80-100% damage) | 2 (2=20-39% damage) | 5 (5=80-100% damage) | 3 (3=40-59% damage) | 5 (5=80-100% damage) | 4 (4=60-79% damage) | 3 (3=40-59% damage) | 5 (5=80-100% damage) | 
4 | CS(=O)(=O)c1ccc(-c2cnn(C3CC3)c(=O)c2O)c(Cl)c1C1=NOCC1 [Compound 1.158] |  |  |  |  |  |  |  |  |  |  |  |  | herbicidal damage, POST Application IPOHE ([1]; five point scale): 5 (5=80-100% damage); herbicidal damage, PRE Application ECHCG ([2]; five point scale): 5 (5=80-100% damage); herbicidal damage, PRE Application SETFA (Setaria faberi (SETFA) [3]; five point scale): 3 (3=40-59% damage); herbicidal damage, PRE Application ALOMY ([4]; five point scale): 3 (3=40-59% damage); herbicidal damage, PRE Application AMARE ([5]; five point scale): 5 (5=80-100% damage); herbicidal damage, PRE Application IPOHE ([6]; five point scale): 3 (3=40-59% damage); herbicidal damage, POST Application SOLNI (Solanum nigrum (SOLNI) [7]; five point scale): 5 (5=80-100% damage); herbicidal damage, POST Application ALOMY ([8]; five point scale): 5 (5=80-100% damage); herbicidal damage, POST Application ECHCG ([9]; five point scale): 5 (5=80-100% damage); herbicidal damage, POST Application AMARE ([10]; five point scale): 5 (5=80-100% damage); herbicidal damage, POST Application SETFA (Setaria faberi (SETFA) [11]; five point scale): 5 (5=80-100% damage); herbicidal damage, PRE Application SOLNI (Solanum nigrum (SOLNI) [12]; five point scale): 4 (4=60-79% damage)
5 | CC(C)n1ncc(-c2c(Cl)cccc2Cl)c(O)c1=O [Compound 1.016] | 2 (2=20-39% damage) | 1 (1=0-19% damage) | 1 (1=0-19% damage) | 1 (1=0-19% damage) | 1 (1=0-19% damage) | 1 (1=0-19% damage) | 3 (3=40-59% damage) | 2 (2=20-39% damage) | 2 (2=20-39% damage) | 5 (5=80-100% damage) | 3 (3=40-59% damage) | 1 (1=0-19% damage) | 

Source: US9693556B2, “Herbicidal pyridazinone derivatives” (SYNGENTA LIMITED, priority 2011, dated 2017)
